Several values for one entry are separate records, joined by “and”; a condition that tells them apart may be missing. Equal entries are not always repeated.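 These data come from cells grown in 96-well plates and exposed to compound for 48 hours at five concentrations. Abbreviation: GI50, concentration required for 50% inhibition of growth. The concentration for full growth arrest is given as TGI.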
Legend:
Experiment in all cases: NCI-60 cell line screen, 48 h
M14 melanoma = system: M14 melanoma
MDA-MB-231 breast = system: MDA-MB-231 breast
A498 renal = system: A498 renal
MOLT-4 leukemia = system: MOLT-4 leukemia
OVCAR-3 ovarian = system: OVCAR-3 ovarian
HCC-2998 colon = system: HCC-2998 colon
A549 NSCLC = system: A549 NSCLC
BT-549 breast = system: BT-549 breast
U251 CNS = system: U251 CNS
SK-OV-3 ovarian = system: SK-OV-3 ovarian

Compound | GI50 (M14 melanoma) | TGI (M14 melanoma) | GI50 (MDA-MB-231 breast) | TGI (MDA-MB-231 breast) | GI50 (A498 renal) | TGI (A498 renal) | GI50 (MOLT-4 leukemia) | TGI (MOLT-4 leukemia) | GI50 (OVCAR-3 ovarian) | TGI (OVCAR-3 ovarian) | GI50 (HCC-2998 colon) | TGI (HCC-2998 colon) | GI50 (A549 NSCLC) | TGI (A549 NSCLC) | GI50 (BT-549 breast) | TGI (BT-549 breast) | GI50 (U251 CNS) | TGI (U251 CNS) | GI50 (SK-OV-3 ovarian) | TGI (SK-OV-3 ovarian)
CN1CCc2nc3sc(C(N)=O)c(N)c3c(-c3cccs3)c2C1 | 4.19 µM | 19.4 µM | 4.77 µM | > 100 µM | 2.58 µM | 7.27 µM | 2.89 µM | 48.4 µM | 2.16 µM | 6.23 µM | 3.54 µM | 20.9 µM | 3.37 µM | > 100 µM | 3.26 µM | 35.5 µM | 3.18 µM | > 100 µM | 3.35 µM | > 100 µM
Fc1ccc(/C=N/n2c(-c3ccc(F)c(Cl)c3)n[nH]c2=S)cc1 | 23.8 µM | 71.6 µM | 20.2 µM | 38.9 µM | 13.8 µM | 31 µM | 25.4 µM | 94.6 µM | 18.3 µM | 37.3 µM | 34.8 µM | > 100 µM | 21.4 µM | 46 µM | 78.5 µM | > 100 µM | – | – | 22 µM | 38.5 µM
CCN1C(=O)N(CC)C2C1NN=c1s/c(=C\c3ccc(F)cc3)c(=O)n12 (stereo unspecified) | 0.136 µM | > 100 µM | 0.406 µM | > 80.2 µM | 0.0394 µM | 0.33 µM | 0.418 µM | > 100 µM | 0.0924 µM | 0.664 µM | 0.319 µM | > 100 µM | 0.347 µM | > 100 µM | 0.759 µM | > 26.1 µM | 0.241 µM | > 100 µM | 0.343 µM | > 100 µM
c1cc(N2CCN(c3ccc(C4=NCCCN4)cc3)CC2)ccc1C1=NCCCN1 | > 100 µM | > 100 µM | > 62.6 µM | > 100 µM | 29.2 µM | > 100 µM | 19.4 µM | > 100 µM | > 32.2 µM | > 100 µM | – | > 45.2 µM | > 80.6 µM | > 100 µM | > 100 µM | > 100 µM | > 74.6 µM | > 100 µM | > 100 µM | > 100 µM
CSc1ccc(C2=NN(C(C)=O)C(c3ccc(-c4ccc(Cl)cc4)o3)C2)cc1 (stereo unspecified) | 29.8 µM | > 100 µM | 19.3 µM | > 100 µM | 26 µM | 48 µM | 16.4 µM | 97.3 µM | 21 µM | 80.9 µM | 47.1 µM | > 100 µM | 35.2 µM | > 100 µM | 76.4 µM | > 100 µM | 31.3 µM | > 100 µM | 28.9 µM | > 100 µM
Nc1n[nH]c2ccc([C@@H]3Nc4cc5c(cc4[C@H]4C6CCC(C6)[C@@H]34)C(=O)NC5)cc12 (stereo partly specified) | 0.287 µM | > 43.1 µM | 0.436 µM | – | 0.13 µM | 0.737 µM | 0.415 µM | > 100 µM | 0.305 µM | 1.19 µM | 0.362 µM | > 41.5 µM | 1.56 µM | > 100 µM | 0.32 µM | 1.71 µM | 0.418 µM | > 100 µM | 0.844 µM | > 100 µM
CCCCNc1nc(NC2OCC(OC(C)=O)C(OC(C)=O)C2OC(C)=O)c(N=O)c(=O)n1C (stereo unspecified) | – | > 10 µM | – | > 10 µM | – | > 10 µM | – | > 10 µM | – | > 10 µM | – | > 10 µM | – | > 10 µM | – | > 10 µM | – | > 10 µM | – | > 10 µM
Oc1cccc2c1NCCC2 | 0.142 µM | 15.6 µM | 0.183 µM | > 100 µM | 2.57 µM | 9.07 µM | 1.27 µM | > 100 µM | 0.0425 µM | 2.59 µM | 3.67 µM | > 89.7 µM | 0.111 µM | > 32.2 µM | 0.541 µM | > 100 µM | 0.102 µM | > 100 µM | 0.891 µM | > 100 µM
Clc1ccc(C2ON=C(c3ccccc3)N2C23CC4CC(CC(C4)C2)C3)cc1 (stereo unspecified) | – | > 10 µM | – | > 10 µM | – | > 10 µM | – | > 10 µM | – | > 10 µM | – | > 10 µM | – | > 10 µM | – | > 10 µM | – | > 10 µM | – | > 10 µM
COc1cc(C(=O)c2cc(C)c3[nH]c4ccc(O)cc4c3c2C)cc(OC)c1OC | 0.0185 µM | > 100 µM | 0.0355 µM | – | < 0.01 µM | < 0.0189 µM | 0.0424 µM | > 100 µM | < 0.01 µM | 2.17 µM | 0.03 µM | > 37.9 µM | 0.0191 µM | > 100 µM | < 0.0164 µM | 1.26 µM | 0.0226 µM | > 100 µM | 0.267 µM | 98.6 µM
COc1ccc(/C=C(\C)[N+](=O)[O-])cc1OC | 1.96 µM | 3.95 µM | 2.33 µM | 6.21 µM | 4.51 µM | 18.5 µM | 3.86 µM | 9.52 µM | 1.87 µM | 3.29 µM | 1.82 µM | 3.29 µM | 5.56 µM | 19.3 µM | 1.86 µM | 3.36 µM | 4.39 µM | 15.9 µM | 13.9 µM | 27.4 µM
COc1ccc(/C=C(/C)[N+](=O)[O-])cc1OC | 1.97 µM and 1.69 µM | 3.8 µM and 3.42 µM | 1.97 µM and 2.38 µM | 4.26 µM and 5.02 µM | 5.13 µM and 4.73 µM | 17.2 µM and 16.6 µM | 2.94 µM and 3.32 µM | – | 1.89 µM and 1.79 µM | 3.35 µM and 3.44 µM | 1.8 µM and 1.77 µM | 3.27 µM and 3.32 µM | 6.05 µM and 4.13 µM | 19.7 µM and 17.7 µM | 3.74 µM and 2.07 µM | 8.87 µM and 3.92 µM | 2.3 µM and 1.67 µM | 6.14 µM and 3.14 µM | 14.3 µM and 16.7 µM | 27.4 µM and 30.4 µM
CN1CCN(CCCCCN=c2cc3c(=O)n(CCCCCN4CCN(C)CC4)c(=O)c4c(NCCCCCN5CCN(C)CC5)cc5c(O)n(CCCCCN6CCN(C)CC6)c(=O)c2c5c4-3)CC1 | 35 µM | > 100 µM | 2.38 µM | 7.22 µM | 19.2 µM | 60 µM | 4.85 µM | > 100 µM | 3.23 µM | 9.92 µM | 5.79 µM | 24.4 µM | 2.92 µM | 8.64 µM | 4.34 µM | 15.7 µM | 2.21 µM | 6.68 µM | 2.03 µM | 5.62 µM
COc1cc(-c2nn(-c3cccc(NC(=O)CCN4CCN(Cc5ccccc5)CC4)c3)cc2-c2ccncc2)ccc1Cl | 0.696 µM | 2.21 µM | 1.64 µM | 3.71 µM | 1.41 µM | 6.71 µM | 1.15 µM | 5.8 µM | 0.395 µM | 1.77 µM | 1.68 µM | 3.82 µM | 1.72 µM | 11.6 µM | 2.27 µM | 8.59 µM | 0.839 µM | 2.76 µM | 4.86 µM | 20.6 µM
C=CCc1cc(Nc2c3ccc(Cl)cc3nc3ccc(OC)cc23)cc(CN(CC)CC)c1O | 1.9 µM | 5.3 µM | 2.35 µM | 10.8 µM | 1.68 µM | 5.84 µM | 1.24 µM | 4.92 µM | 1.88 µM | 11.5 µM | 2.71 µM | 16.6 µM | 3.26 µM | 13.9 µM | 1.38 µM | 8.1 µM | 0.802 µM | 10.8 µM | 1.9 µM | 6.62 µM
COc1ccc(Nc2ccnc(N3CCN(c4ccnc5cc(Cl)ccc45)CC3)n2)cc1 | 0.768 µM | 3.28 µM | 1.51 µM | > 29.8 µM | 0.342 µM | 4.17 µM | 1.56 µM | 4.37 µM | 0.729 µM | 15.4 µM | 2.73 µM | > 55.4 µM | 1.47 µM | > 100 µM | 1.16 µM | 3.72 µM | 1.17 µM | 11.5 µM | 2.62 µM | > 100 µM
C[C@@H]1Cc2cc(O)ccc2[C@H]2CC[C@]3(C)/C(=C/COCCN(C)C)CC[C@H]3[C@H]12 (tested in a mixture with another compound) | 0.381 µM | 1.44 µM | 0.833 µM | 3.15 µM | 0.534 µM | 1.59 µM | 0.0833 µM | 0.487 µM | 0.18 µM | 0.344 µM | 0.448 µM | 1.65 µM | 0.0557 µM | 0.193 µM | 0.294 µM | 0.8 µM | 0.216 µM | 0.528 µM | 0.228 µM | 0.62 µM
C/C(=N\O)c1cccc(Nc2cc(-n3ccnc3)c3ccccc3n2)c1 | 11.6 µM | 24.1 µM | 6.26 µM | 24 µM | 21.6 µM | 39.1 µM | 12.6 µM | 37.5 µM | 14.7 µM | 39.6 µM | 17.3 µM | 31.7 µM | – | – | 17 µM | 35.1 µM | 12.4 µM | 28.7 µM | 20.9 µM | 60.5 µM
Cn1ccnc1Oc1ccc(Cl)cc1 | – | 37.2 µM | – | 37.4 µM | – | 46.4 µM | – | 7.01 µM | – | – | – | 14.9 µM | – | > 100 µM | – | 65.7 µM | – | 46.7 µM | – | > 100 µM

Reference: PubChem BioAssay (NCI)
